Measurements as given in ChEMBL document CHEMBL1649305, “Novel protease inhibitors (PIs) containing macrocyclic components and 3(R),3a(S),6a(R)-bis-tetrahydrofuranylurethane that are potent against multi-PI-resistant HIV-1 variants in vitro” (Antimicrob Agents Chemother, 2010).
The source made the active and inactive calls. The rule behind the calls is not given here.

Key:
[1] = system: Human immunodeficiency virus 1; assay: Antiviral activity against wild type HIV1 ERS104 containing protease L63P mutant infected in human PHA-PBMC cells by p24 Gag protein production inhibition assay; conditions: Human immunodeficiency virus 1, ERS104, PBMC
[2] = system: Human immunodeficiency virus 1; assay: Antiviral activity against HIV1 expressing protease L10F/M46L/I50V/A71Vmutant infected in human MT4 cells selected at 1 uM of GRL-286 by MTT assay; assay type: functional, organism-based; conditions: Human immunodeficiency virus 1, MT4
[3] = system: Human immunodeficiency virus 1; assay: Antiviral activity against HIV1 NL4-3 infected in human MT4 cells at 1 uM after 33 passages by MTT assay; assay type: functional, organism-based
[4] = system: Human immunodeficiency virus 1; assay: Antiviral activity against HIV1 NL4-3 infected in human MT4 cells after 50 passages by MTT assay; assay type: functional, organism-based
[5] = system: Human immunodeficiency virus 1; assay: Antiviral activity against HIV1 expressing protease L10F/M46I/I50V/A71V/I84V/L90M mutant infected in human MT4 cells selected at 5 uM of amprenavir by p24 Gag protein production inhibition assay; conditions: Human immunodeficiency virus 1, MT4
[6] = system: Human immunodeficiency virus 1; assay: Antiviral activity against HIV1 NL4-3 infected in human MT4 cells at 1 uM after 20 passages by MTT assay; assay type: functional, organism-based
[7] = target: Protease (Human immunodeficiency virus 1) (UniProt Q9YQ12); assay: Inhibition of protease dimerization in HIV1 infected in COS7 cells at 0.1 uM by FRET based assay; assay type: cell-based; conditions: COS-7
[8] = system: Human immunodeficiency virus 1; assay: Antiviral activity against multidrug-resistant HIV1 isolate G containing L10I, V11I, T12E, I15V, L19I,R41K, M46L, L63P, A71T, V82A, and L90M mutant infected in human PHA-PBMC cells by p24 Gag protein production inhibition assay; conditions: Human immunodeficiency virus 1, isolate G
[9] = system: Human immunodeficiency virus 1; assay: Antiviral activity against multidrug-resistant HIV1 isolate MM containing L10I, K43T, M46L, I54V, L63P, A71V, V82A, L90M, and Q92K mutant infected in human PHA-PBMC cells by p24 Gag protein production inhibition assay; conditions: Human immunodeficiency virus 1, isolate MM
[10] = system: Human immunodeficiency virus 1; assay: Antiviral activity against wild type HIV1 NL4-3 infected in human MT4 cells by p24 Gag protein production inhibition assay; conditions: Human immunodeficiency virus 1, NL4-3, MT4
[11] = system: Human immunodeficiency virus 1; assay: Antiviral activity against multidrug-resistant HIV1 isolate JSL containing L10I, L24I, I33F, E35D, M36I, N37S, M46L, I54V, R57K, I62V, L63P, A71V, G73S, and V82A mutant infected in human PHA-PBMC cells by p24 Gag protein production inhibition assay; conditions: Human immunodeficiency virus 1, isolate JSL
[12] = system: Human immunodeficiency virus 1; assay: Antiviral activity against HIV1 NL4-3 infected in human MT4 cells at 1 uM after 37 passages by MTT assay; assay type: functional, organism-based
[13] = system: Human immunodeficiency virus 1; assay: Antiviral activity against HIV1 expressing protease L10F/M46I/T91S mutant infected in human MT4 cells selected at 1 uM of GRL-246 by MTT assay; assay type: functional, organism-based; conditions: Human immunodeficiency virus 1, MT4
[14] = Selectivity ratio of CC50 for human MT2 cells to EC50 for HIV1 LAI infected human MT2 cells; assay type: ADME, cell-based; conditions: MT2 cells (CC50) and HIV1 LAI infected MT2 cells (EC50)
[15] = system: Human immunodeficiency virus 1; assay: Ratio of EC50 for multidrug-resistant HIV1 isolate C containing protease L10I, I15V, K20R, L24I, M36I, M46L, I54V, I62V, L63P, K70Q, V82A, and L89M mutant to EC50 for wild type HIV1 ERS104 containing protease L63P mutant infected in human PHA-PBMC cells
[16] = system: Human immunodeficiency virus 1; assay: Ratio of EC50 for multidrug-resistant HIV1 isolate G containing L10I, V11I, T12E, I15V, L19I,R41K, M46L, L63P, A71T, V82A, and L90M mutant to EC50 for wild type HIV1 ERS104 containing protease […] infected in human PHA-PBMC cells; assay type: functional
[17] = system: Human immunodeficiency virus 1; assay: Ratio of EC50 for multidrug-resistant HIV1 isolate JSL to EC50 for wild type HIV1 ERS104 containing protease […] infected in human PHA-PBMC cells
[18] = Cytotoxicity against human MT2 cells after 7 days by MTT assay; assay type: cell-based
[19] = system: Human immunodeficiency virus 2; assay: Antiviral activity against HIV2 ROD infected in human MT2 cells by MTT assay; assay type: functional, organism-based; conditions: Human immunodeficiency virus 2, ISOLATE ROD
[20] = system: Human immunodeficiency virus 1; assay: Antiviral activity against multidrug-resistant HIV1 isolate C containing protease L10I, I15V, K20R, L24I, M36I, M46L, I54V, I62V, L63P, K70Q, V82A, and L89M mutant infected in human PHA-PBMC cells by p24 Gag protein production inhibition assay; conditions: Human immunodeficiency virus 1, isolate C
[21] = system: Human immunodeficiency virus 1; assay: Antiviral activity against multidrug-resistant HIV1 isolate B containing protease L10I, K14R, L33I, M36I,M46I, F53I, K55R, I62V, L63P, A71V, G73S, V82A, L90M, and I93L mutant infected in human PHA-PBMC cells by p24 Gag protein production inhibition assay; conditions: Human immunodeficiency virus 1, isolate B
[22] = system: Human immunodeficiency virus 2; assay: Antiviral activity against HIV2 EHO infected in human MT2 cells by MTT assay; assay type: functional, organism-based; conditions: Human immunodeficiency virus 2, EHO
[23] = system: Human immunodeficiency virus 1; assay: Antiviral activity against HIV1 expressing protease L10F/M46I/I54V/V82A mutant infected in human MT4 cells selected at 5 uM of Lopinavir by p24 Gag protein production inhibition assay; conditions: Human immunodeficiency virus 1, MT4
[24] = system: Human immunodeficiency virus 1; assay: Antiviral activity against HIV1 expressing protease L10I/L24I/M46I/V82I/I84V mutant infected in human MT4 cells selected after 50 passages of GRL-216 by MTT assay; assay type: functional, organism-based; conditions: Human immunodeficiency virus 1, MT4
[25] = system: Human immunodeficiency virus 1; assay: Antiviral activity against HIV1 expressing protease L10F/D30N/K45I/A71V/T74S mutant infected in human MT4 cells selected at 5 uM of nelfinavir by MTT assay; assay type: functional, organism-based; conditions: Human immunodeficiency virus 1, MT4
[26] = system: Human immunodeficiency virus 1; assay: Antiviral activity against multidrug-resistant HIV1 isolate TM containing L10I, K14R, R41K, M46L, I54V, L63P, A71V, V82A, L90M, and I93L mutant infected in human PHA-PBMC cells by p24 Gag protein production inhibition assay; conditions: Human immunodeficiency virus 1, isolate TM
[27] = system: Human immunodeficiency virus 1; assay: Antiviral activity against HIV1 LAI infected in human MT2 cells by MTT assay; assay type: functional, organism-based; conditions: Human immunodeficiency virus 1, LAI
[28] = system: Human immunodeficiency virus 1; assay: Antiviral activity against HIV1 expressing protease L10I/G48V/I54V/A71V/I84V/L90M mutant infected in human MT4 cells selected at 5 uM of saquinavir by p24 Gag protein production inhibition assay; conditions: Human immunodeficiency virus 1, MT4
[29] = system: Human immunodeficiency virus 1; assay: Antiviral activity against HIV1 expressing protease L10F/M46M,I/Q61Q mutant infected in human MT4 cells selected at 1 uM of GRL-396 by MTT assay; assay type: functional, organism-based; conditions: Human immunodeficiency virus 1, MT4
[30] = system: Human immunodeficiency virus 1; assay: Antiviral activity against HIV1 expressing protease L23I/E34Q/K43I/M46I/I50L/G51A/L63P/A71V/V82A/T91A mutant infected in human MT4 cells selected at 5 uM of atazanavir by p24 Gag protein production inhibition assay; conditions: Human immunodeficiency virus 1, MT4
[31] = system: Human immunodeficiency virus type 1 protease (Human immunodeficiency virus 1), Q72874 [L24I,V82I,I84V]; assay: Inhibition of protease L24I/V82I/I84V[…] dimerization in HIV1 infected in COS7 cells at 0.1 uM by FRET based assay; assay type: cell-based; conditions: COS-7
[32] = system: Human immunodeficiency virus 1; assay: Antiviral activity against HIV1 NL4-3 infected in human MT4 cells at 0.26 uM after 50 passages by MTT assay; assay type: functional, organism-based

## COc1ccc2c(c1)OCCC/C=C\CCCCN(C[C@@H](O)[C@H](Cc1ccccc1)NC(=O)O[C@H]1CO[C@H]3OCC[C@H]31)S2(=O)=O
[1]
  EC50: 7 nM
[2]
  EC50: > 1000 nM
[3]
  Activity: inactive
[4]
  Activity: inactive
[5]
  EC50: > 1000 nM
[6]
  Activity: inactive
[7]
  inhibition: Active
[8]
  EC50: 28 nM
[9]
  EC50: 55 nM
[10]
  EC50: 9 nM
[11]
  EC50: 210 nM
[12]
  Activity: inactive
[13]
  EC50: 330 nM
[14]
  selectivity ratio: 8280
[15]
  Ratio EC50: 4
[16]
  Ratio EC50: 4
[17]
  Ratio EC50: 15
[18]
  CC50 at 168 h: 33100 nM
[19]
  EC50: 25 nM
[20]
  EC50: 29 nM
[21]
  EC50: 89 nM
[22]
  EC50: 18 nM
[23]
  EC50: 350 nM
[24]
  EC50: 190 nM
[25]
  EC50: 41 nM
[26]
  EC50: 72 nM
[27]
  EC50: 4 nM
[28]
  EC50: 46 nM
[29]
  EC50: 250 nM
[30]
  EC50: 30 nM

## COc1ccc2c(c1)OCC/C=C\CCCCN(C[C@@H](O)[C@H](Cc1ccccc1)NC(=O)O[C@H]1CO[C@H]3OCC[C@H]31)S2(=O)=O
[1]
  EC50: 5 nM
[2]
  EC50: > 1000 nM
[5]
  EC50: > 1000 nM
[7]
  inhibition: Active
[31]
  inhibition: Active
[8]
  EC50: 57 nM
[9]
  EC50: 33 nM
[10]
  EC50: 5 nM
[11]
  EC50: 73 nM
[13]
  EC50: 300 nM
[18]
  CC50 at 168 h: 48800 nM
[19]
  EC50: 17 nM
[20]
  EC50: 44 nM
[32]
  Activity: Active
[21]
  EC50: 37 nM
[22]
  EC50: 10 nM
[23]
  EC50: 35 nM
[24]
  EC50: 94 nM
[25]
  EC50: 40 nM
[26]
  EC50: 27 nM
[27]
  EC50: 2 nM
[28]
  EC50: 20 nM
[29]
  EC50: 73 nM
[30]
  EC50: 23 nM
